ChEMBL document CHEMBL1150202, “Modified Taxols, 6. Preparation of Water-Soluble Prodrugs of Taxol” (J Nat Prod, 1991)
In brackets after ≈: the same amount, converted by molar mass.

How the values were obtained:
P388 [1] = experiment: In vivo cytotoxicity against mouse P388 cells at 20 mg/kg, ip, scheduled Q01D for 5 days relative to control; type: functional
[2] = Cytotoxicity against human A549/VP cells; type: functional, cell-based
P388 [3] = experiment: In vivo cytotoxicity against mouse P388 cells at 10 mg/kg, ip, scheduled Q01D for 5 days relative to control; type: functional
HCT-116 = experiment: Cytotoxicity against human HCT116 cells; type: functional, cell-based
[4] = Cytotoxicity against human HCT/VP35 cells; type: functional, cell-based
A549 = experiment: Cytotoxicity against human A549 cells; type: functional, cell-based
P388 [5] = experiment: In vivo cytotoxicity against mouse P388 cells at 40 mg/kg, ip, scheduled Q01D for 5 days relative to control; type: functional
P388 [6] = experiment: In vivo cytotoxicity against mouse P388 cells at 2.5 mg/kg, ip, scheduled Q01D for 5 days relative to control; type: functional
P388 [7] = experiment: In vivo cytotoxicity against mouse P388 cells at 5 mg/kg, ip, scheduled Q01D for 5 days relative to control; type: functional
B16 = experiment: Cytotoxicity against mouse B16 cells grown in PRIM medium; type: functional, cell-based
P388 [8] = experiment: In vivo cytotoxicity against mouse P388 cells at 16 mg/kg, ip, scheduled Q01D for 5 days relative to control; type: functional
P388 [9] = experiment: In vivo cytotoxicity against mouse P388 cells at 8 mg/kg, ip, scheduled Q01D for 5 days relative to control; type: functional
P388 [10] = experiment: In vivo cytotoxicity against mouse P388 cells at 4 mg/kg, ip, scheduled Q01D for 5 days relative to control; type: functional
P388 [11] = experiment: In vivo cytotoxicity against mouse P388 cells at 32 mg/kg, ip, scheduled Q01D for 5 days relative to control; type: functional
P388 [12] = experiment: In vivo cytotoxicity against mouse P388 cells at 64 mg/kg, ip, scheduled Q01D for 5 days relative to control; type: functional
P388 [13] = experiment: In vivo cytotoxicity against mouse P388 cells at 6 mg/kg, ip, scheduled Q01D for 5 days relative to control; type: functional
P388 [14] = experiment: In vivo cytotoxicity against mouse P388 cells at 12 mg/kg, ip, scheduled Q01D for 5 days relative to control; type: functional
P388 [15] = experiment: In vivo cytotoxicity against mouse P388 cells at 48 mg/kg, ip, scheduled Q01D for 5 days relative to control; type: functional
P388 [16] = experiment: In vivo cytotoxicity against mouse P388 cells at 3 mg/kg, ip, scheduled Q01D for 5 days relative to control; type: functional
P388 [17] = experiment: In vivo cytotoxicity against mouse P388 cells at 24 mg/kg, ip, scheduled Q01D for 5 days relative to control; type: functional

| Compound | T/C (P388 [1]) | IC50 [2] | T/C (P388 [3]) | IC50 (HCT-116) | IC50 [4] | IC50 (A549) | T/C (P388 [5]) | T/C (P388 [6]) | T/C (P388 [7]) | IC50 (B16) | T/C (P388 [8]) | T/C (P388 [9]) | T/C (P388 [10]) | T/C (P388 [11]) | T/C (P388 [12]) | T/C (P388 [13]) | T/C (P388 [14]) | T/C (P388 [15]) | T/C (P388 [16]) | T/C (P388 [17]) |
| --- | --- | --- | --- | --- | --- | --- | --- | --- | --- | --- | --- | --- | --- | --- | --- | --- | --- | --- | --- | --- |
| CC(=O)O[C@H]1C(=O)[C@@]2(C)[C@H]([C@H](OC(=O)c3ccccc3)[C@]3(O)C[C@H](OC(=O)[C@H](OC(=O)CCS(=O)(=O)[O-])[C@@H](NC(=O)c4ccccc4)c4ccccc4)C(C)=C1C3(C)C)[C@]1(OC(C)=O)CO[C@@H]1C[C@@H]2O.[Na+] | 136% | 0.19 µg/mL | 127% | < 0.02 µg/mL | 0.05 µg/mL | 0.4 µg/mL | 136% | 109% | 123% | 0.02 µg/mL | – | – | – | – | – | – | – | – | – | – |
| CC(=O)O[C@H]1C(=O)[C@@]2(C)[C@H]([C@H](OC(=O)c3ccccc3)[C@]3(O)C[C@H](OC(=O)[C@H](OC(=O)CCC(=O)NCCS(=O)(=O)[O-])[C@@H](NC(=O)c4ccccc4)c4ccccc4)C(C)=C1C3(C)C)[C@]1(OC(C)=O)CO[C@@H]1C[C@@H]2O.[Na+] | – | < 0.02 µg/mL | – | < 0.02 µg/mL | 0.03 µg/mL | 0.09 µg/mL | – | – | – | < 0.02 µg/mL | 127% | 114% | 109% | 136% | 132% | – | – | – | – | – |
| CC(=O)O[C@H]1C(=O)[C@@]2(C)[C@H]([C@H](OC(=O)c3ccccc3)[C@]3(O)C[C@H](OC(=O)[C@H](OC(=O)CCC(=O)NCCCS(=O)(=O)[O-])[C@@H](NC(=O)c4ccccc4)c4ccccc4)C(C)=C1C3(C)C)[C@]1(OC(C)=O)CO[C@@H]1C[C@@H]2O.[Na+] | – | 0.11 µg/mL | – | < 0.02 µg/mL | 0.04 µg/mL | 0.19 µg/mL | – | – | – | < 0.02 µg/mL | – | – | – | – | – | 114% | 118% | 127% | 109% | 123% |
| CC(=O)O[C@H]1C(=O)[C@@]2(C)[C@H]([C@H](OC(=O)c3ccccc3)[C@]3(O)C[C@H](OC(=O)[C@H](O)[C@@H](NC(=O)c4ccccc4)c4ccccc4)C(C)=C1C3(C)C)[C@]1(OC(C)=O)CO[C@@H]1C[C@@H]2O [PACLITAXEL] | – | < 0.02 µg/mL | – | < 0.02 µg/mL | < 0.02 µg/mL | 4.79 µg/mL (≈ 5.61 µM) | – | – | – | < 0.02 µg/mL | 155% | 132% | 150% | – | – | – | – | – | – | – |
